From US12194018B2, “Cannabinoid compositions” (SRE Wellness, Inc., priority 2016, dated 2025)

How the values were obtained:
[1] = in vivo; cited from earlier work
[2] = edible Cannabis products; depending on liver function; cited from earlier work
[3] = Emulsifying agents tested for emulsification of coconut oil and water (Example 2); assay type: physicochemical; settings: coconut oils solid and liquid (MCT)
Text: Several experiments were run using several different emulsifiers and combinations of different coconut oils: solid and liquid (MCT). (Note: liquid MCT is coconut oil that has medium chain triglyceride).

For C=C(C)[C@@H]1CCC(C)=C[C@H]1c1c(O)cc(CCCCC)cc1O [CBD, cannabidiol], the “Risk of lethal overdose” value [1] is given as “no risk of lethal overdose”.
In the case of CCCCCc1cc(O)c2c(c1)OC(C)(C)[C@@H]1CCC(C)=C[C@@H]21 [THC, Δ^9-tetrahydrocannabinol], the “Share of the THC able to be metabolized” value [2] is listed as 2-6% and the “Risk of lethal overdose” value [1] is listed as “no risk of lethal overdose”.
In the case of cyclodextrin, the “Effectiveness as emulsifying agent (emulsification of the oil and water)” value [3] is reported as “good results”.
